Assay results: patent US12636385B2, “Selective ligands for tau aggregates” (Sentonix, Inc., priority 2018, dated 2026)
pIC50: −log10 of the molar value.

Tests used:
[1] = molecular target: T1, 0N4R Tau fibrils (Homo sapiens, UniProt P10636); assay: ^3H-THK5117 competition binding to tau fibrils in vitro; conditions: for pIC50: 3 nM [^3H]-THK5117, recombinant 0N4R tau fibrils, average if run more than once; for Selectivity for tau relative to Aβ: calculated from [^3H]-THK5117 tau and [^3H]-AZD2184 Aβ assays
T1 construct: made in house
Procedure: Preparation of recombinant 0N4R Tau fibrils was performed as previously described in Morozova, O. A., Biochemistry (2013), Vol., 52(40), pages 6960-6967. Competition binding experiments to 0N4R Tau fibrils were performed by incubating increasing concentrations [10^−10-10^−6 M] of the Example compounds of the invention, or the known tau specific ligand PBB3 (PBB3 was synthesized as previously described in M. Maruyama, et al, Neuron 2013, 79, 1094-1108) or MK6240 (Novandi Chemistry AB), in the presence of 3 nM of the known tau ligand [^3H]-THK5117 (Novandi Chemistry) and 0.2 mM 0N4R tau fibrils in binding buffer (50 mM Tris-HCl, pH 7.4, 0.1% BSA) for 1 h in the dark, and at 22° C. The incubation was terminated by filtration through a Whatman GF/B glass filter (Whatman International, Kent, UK) using a Brandel cell harvester. The filter was then washed rapidly four times with 3 mL of ice-cold wash buffer (5 mM Tris-HCl, 0.25 mM NaCl, 5% EtOH), and equilibrated for 1 h in scintillation vials containing 5 mL of Ultima Gold scintillation fluid before being analysed using a Liquid Scintillation Analyzer.
The results are shown in Table 2 in the column labeled “Tau IC50”.
Relative selectivity for tau compared to Aβ for the exemplified compounds was calculated using the results for the [^3H]-THK5117 tau and [^3H]-AZD2184 Aβ assays described above. The calculated results are shown in Table 2 in the column labeled “Selectivity for tau relative to Aβ”.

[2] = molecular target: T2, Aβ(1-42) amyloid fibrils (Homo sapiens, UniProt P05067); assay: ^3H-AZD2184 competition binding to Aβ(1-42) fibrils in vitro; conditions: [^3H]-AZD2184, Aβ(1-42) amyloid fibrils; average if run more than once
T2 construct: Aβ(1-42) amyloid fibrils
Procedure: Competition binding experiments to Aβ(1-42) amyloid fibrils were performed as previously described in Jureus, A., et al, Journal of Neurochemistry (2010), Vol. 114, pages 784-794 for the Example compounds of the invention indicated in Table 2, or the known tau specific ligand PBB3 (PBB3 was synthesized as previously described in M. Maruyama, et al, Neuron 2013, 79, 1094-1108).
The results are shown in Table 2 in the column labeled “Aβ IC50”.

T2 sequence (P05067 672-713): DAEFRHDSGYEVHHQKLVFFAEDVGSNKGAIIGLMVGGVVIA
T1 sequence (P10636 1-383 isoform P10636-6): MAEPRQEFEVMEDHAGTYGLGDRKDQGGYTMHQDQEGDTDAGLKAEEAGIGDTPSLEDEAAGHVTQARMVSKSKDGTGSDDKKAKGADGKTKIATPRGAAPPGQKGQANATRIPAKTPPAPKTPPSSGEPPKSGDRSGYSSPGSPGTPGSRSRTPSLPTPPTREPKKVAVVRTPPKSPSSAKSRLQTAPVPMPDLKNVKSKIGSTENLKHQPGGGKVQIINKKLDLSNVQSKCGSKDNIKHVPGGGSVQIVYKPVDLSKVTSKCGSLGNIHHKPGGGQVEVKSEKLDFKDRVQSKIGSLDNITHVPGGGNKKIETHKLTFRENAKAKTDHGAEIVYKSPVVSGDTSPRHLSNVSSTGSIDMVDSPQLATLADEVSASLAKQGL

Row | SMILES | pIC50 [1] | Selectivity for tau relative to Aβ [1] | pIC50 [2]
1 | OCCC1CCN(c2ccc(-c3nc4ccccc4o3)cn2)CC1 [Compound 11] | 7.19 | – | –
2 | CS(=O)(=O)OCCC1CCN(c2ccc(-c3nc4ccccc4o3)cn2)CC1 [Compound 12] | 7.77 | – | –
3 | c1ccc2oc(-c3ccc(N4CCCCC4)nc3)nc2c1 [Compound 14] | 7.66 | – | –
4 | COC1CCN(c2ccc(-c3nc4ccccc4o3)cn2)CC1 [Compound 15] | 7.41 | – | –
5 | CC1CCN(c2ccc(-c3nc4ccccc4o3)cn2)CC1 [Compound 16] | 7.23 | – | –
6 | N#CC1CCN(c2ccc(-c3nc4ccccc4o3)cn2)CC1 [Compound 17] | 7.14 | – | –
7 | OCCC1CCN(c2ccc(-c3nc4cnccc4o3)cn2)CC1 [Compound 18] | 7.41 | – | –
8 | CS(=O)(=O)OCCC1CCN(c2ccc(-c3nc4cnccc4o3)cn2)CC1 [Compound 19] | 7.12 | – | –
9 | FCCC1CCN(c2ccc(-c3nc4cnccc4o3)cn2)CC1 [Compound 20] | 7.22 | – | –
10 | OCCC1CCN(c2ccc(-c3cc4ccccc4o3)cn2)CC1 [Compound 27] | 8.15 | 4.9 | 7.47
11 | OCCC1CCN(c2ncc(-c3cc4ccccc4o3)cn2)CC1 [Compound 28] | 8.00 | 1.5 | 7.82
12 | COS(=O)(=O)CCC1CCN(c2ncc(-c3cc4ccccc4o3)cn2)CC1 [Compound 29] | 7.49 | – | –
13 | FCCC1CCN(c2ncc(-c3cc4ccccc4o3)cn2)CC1 [Compound 30] | 7.92 | 2.1 | 7.60
14 | OCCOC1CCN(c2ncc(-c3cc4ccccc4o3)cn2)CC1 [Compound 31] | 7.82 | – | –
15 | OC1CCN(c2ncc(-c3cc4ccccc4o3)cn2)CC1 [Compound 32] | 7.37 | 1.5 | 7.18
16 | NC(=O)COC1CCN(c2ncc(-c3cc4ccccc4o3)cn2)CC1 [Compound 34] | 7.49 | – | –
17 | OCCC1CCN(c2ccc(-c3cc4ccccc4o3)nn2)CC1 [Compound 35] | 7.00 | – | –
18 | NC(=O)c1ccc2nc(-c3cnc(N4CCC(CCO)CC4)nc3)sc2c1 [Compound 41] | 8.00 | – | –
19 | OCC1CCN(c2ccc(-c3cc4ccccc4o3)c(F)n2)CC1 [Compound 45] | 8.05 | 4.7 | 7.38
20 | OCCC1CCN(c2ncc(-c3nc4ccccc4[nH]3)cn2)CC1 [Compound 49, 2-{1-[5-(1H-1,3-Benzodiazol-2-yl)pyrimidin-2-yl]piperidin-4-yl}ethan-1-ol] | 7.31 | – | –
21 | CCOC(=O)C1CCN(c2ccc(-c3cc4ccc(OC)cc4[nH]3)c(F)n2)CC1 [Compound 63, Ethyl 1-[6-Fluoro-5-(6-methoxy-1H-indol-2-yl)pyridin-2-yl]piperidine-4-carboxylate] | 8.64 | – | –
22 | CNC(=O)c1ccc2cc(-c3ccc(N4CCC(CO)CC4)nc3F)[nH]c2c1 [Compound 64, 2-{2-Fluoro-6-[4-(hydroxymethyl)piperidin-1-yl]pyridin-3-yl}-N-methyl-1H-indole-6-carboxamide] | 7.62 | – | –
23 | NC(=O)c1ccc2cc(-c3cnc(N4CCC(CF)CC4)nc3)[nH]c2c1 [Compound 70, 2-{2-[4-(Fluoromethyl)piperidin-1-yl]pyrimidin-5-yl}-1H-indole-6-carboxamide] | 7.70 | – | –
24 | OCC1CCN(c2ccc(-c3cc4cccnc4[nH]3)c(F)n2)CC1 [Compound 73, [1-(6-Fluoro-5-{1H-pyrrolo[2,3-b]pyridin-2-yl}pyridin-2-yl)piperidin-4-yl]methanol] | 7.39 | – | –
25 | COc1cnc2[nH]c(-c3ccc(N4CCC(CO)CC4)nc3F)cc2c1 [Compound 74] | 7.85 | – | –
26 | OCC1CCN(c2ccc(-c3cc4cc(O)cnc4[nH]3)c(F)n2)CC1 [Compound 75] | 7.85 | – | –

The next lines start with the values.

Row | pIC50 [1] | Selectivity for tau relative to Aβ [1] | pIC50 [2] | SMILES
27 | 7.72 | – | – | OCC1CCN(c2ccc(-c3nc4ccccc4s3)cn2)CC1 [Compound 1]
28 | 8.15 | – | – | FCC1CCN(c2ccc(-c3nc4ccccc4s3)cn2)CC1 [Compound 2]
29 | 7.96 | 3.9 | 7.37 | FCCCCOCC1CCN(c2ccc(-c3nc4ccccc4s3)cn2)CC1 [Compound 3]
30 | 7.37 | – | – | OC1CCN(c2ccc(-c3nc4ccccc4s3)cn2)CC1 [Compound 4]
31 | 8.30 | 4.8 | 7.62 | FCCCCOC1CCN(c2ccc(-c3nc4ccccc4s3)cn2)CC1 [Compound 5]
32 | 7.80 | 0.2 | 8.52 | FCCOCCOCCOC1CCN(c2ccc(-c3nc4ccccc4s3)cn2)CC1 [Compound 6]
33 | 8.15 | 2.1 | 7.82 | OCCC1CCN(c2ccc(-c3nc4ccccc4s3)cn2)CC1 [Compound 7]
34 | 8.10 | – | – | Cc1ccc(S(=O)(=O)OCCC2CCN(c3ccc(-c4nc5ccccc5s4)cn3)CC2)cc1 [Compound 8]
35 | 8.22 | – | – | FCCC1CCN(c2ccc(-c3nc4ccccc4s3)cn2)CC1 [Compound 9]
36 | 7.51 | – | – | NC(=O)COC1CCN(c2ccc(-c3nc4ccccc4s3)cn2)CC1 [Compound 10]
37 | 7.89 | – | – | FCCC1CCN(c2ccc(-c3nc4ccccc4o3)cn2)CC1 [Compound 13]
38 | 8.30 | 14 | 7.15 | COc1ccc2nc(-c3ccc(N4CCC(CCO)CC4)nc3)sc2c1 [Compound 21]
39 | 8.40 | 1 | 8.40 | COc1ccc2nc(-c3ccc(N4CCC(CCOCCOCCOCCF)CC4)nc3)sc2c1 [Compound 22]
40 | 8.40 | 1 | 8.40 | COc1ccc2nc(-c3ccc(N4CCC(OCCO)CC4)nc3)sc2c1 [Compound 23]
41 | 8.70 | 0.5 | 9.00 | COc1ccc2nc(-c3ccc(N4CCC(CCF)CC4)nc3)sc2c1 [Compound 24]
42 | 8.52 | 22 | 7.19 | COc1ccc2nc(-c3cnc(N4CCC(CCO)CC4)nc3)sc2c1 [Compound 25]

Row | pIC50 [1] | Selectivity for tau relative to Aβ [1] | pIC50 [2] | SMILES
43 | 8.30 | 1.6 | 8.10 | COc1ccc2nc(-c3cnc(N4CCC(CCOCCOCCOCCF)CC4)nc3)sc2c1 [Compound 26]
44 | 7.55 | 0.2 | 8.22 | FCCOCCOCCOC1CCN(c2ncc(-c3cc4ccccc4o3)cn2)CC1 [Compound 33]
45 | 8.52 | 30 | 7.04 | OCCC1CCN(c2ccc(-c3nc4ccc(O)cc4s3)cn2)CC1 [Compound 36]
46 | 7.85 | – | – | OCCC1CCN(c2ccc(-c3nc4ccc(OCC(O)CF)cc4s3)cn2)CC1 (stereo not shown) [Compound 37]
47 | 8.22 | 42 | 6.60 | OCCC1CCN(c2ncc(-c3nc4ccc(O)cc4s3)cn2)CC1 [Compound 38]
48 | 8.82 | 33 | 7.30 | Oc1ccc2nc(-c3cnc(N4CCC(CCF)CC4)nc3)sc2c1 [Compound 39]
49 | 8.22 | 12 | 7.15 | N#Cc1ccc2nc(-c3cnc(N4CCC(CCO)CC4)nc3)sc2c1 [Compound 40]
50 | 7.82 | – | – | CS(=O)(=O)OCCC1CCN(c2ncc(-c3nc4ccc(C(N)=O)cc4s3)cn2)CC1 [Compound 42]
51 | 8.40 | 18 | 7.14 | NC(=O)c1ccc2nc(-c3cnc(N4CCC(CCF)CC4)nc3)sc2c1 [Compound 43]
52 | 8.40 | – | – | CCOC(=O)c1ccc2nc(-c3cnc(N4CCC(CCF)CC4)nc3)sc2c1 [Compound 44]
53 | 8.40 | – | – | OCCC1CCN(c2ccc(-c3cc4ccccc4s3)cn2)CC1 [Compound 50, 2-{1-[5-(1-Benzothiophen-2-yl)pyridin-2-yl]piperidin-4-yl}ethan-1-ol]
54 | 7.89 | – | – | COc1ccc2[nH]c(-c3ccc(N4CCC(CCO)CC4)nc3)cc2c1 [Compound 51, 2-{1-[5-(5-Methoxy-1H-indol-2-yl)pyridin-2-yl]piperidin-4-yl}ethan-1-ol]
55 | 8.15 | – | – | OCC1CCN(c2ccc(-c3nc4ccc(O)cc4s3)cn2)CC1 [Compound 55]
56 | 8.30 | – | – | CCOC(=O)c1ccc2nc(-c3cnc(N4CCC(CCO)CC4)nc3)sc2c1 [Compound 59]
57 | 7.72 | – | – | O=C(NCCF)c1ccc2nc(-c3cnc(N4CCC(CCO)CC4)nc3)sc2c1 [Compound 61]
58 | 7.85 | – | – | OCC1CCN(c2ccc(-c3cc4cc(OCCF)ccc4[nH]3)cn2)CC1 [Compound 77]
